From PubChem BioAssay (NCI)
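These data come from cells grown in 96-well plates and exposed to compound for 48 hours at five concentrations. TGI: concentration producing complete growth inhibition.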

Tests used:
Assay in all cases: DTP human tumour cell line panel, 48 h
HOP-62 NSCLC = test system: HOP-62 NSCLC
LOX IMVI melanoma = test system: LOX IMVI melanoma
OVCAR-3 ovarian = test system: OVCAR-3 ovarian
SK-MEL-5 melanoma = test system: SK-MEL-5 melanoma
SK-OV-3 ovarian = test system: SK-OV-3 ovarian

SMILES	TGI (HOP-62 NSCLC)	TGI (LOX IMVI melanoma)	TGI (OVCAR-3 ovarian)	TGI (SK-MEL-5 melanoma)	TGI (SK-OV-3 ovarian)
O=C(/C=C/c1cccc([N+](=O)[O-])c1)N1CCN(CCOC(c2ccccc2)c2ccccc2)CC1	> 100 µM	62.1 µM	> 100 µM	28.2 µM	> 100 µM
Cc1c(N=Nc2ccccc2)c(-c2ccccc2)n(C2OC(CO)C(O)C(O)C2O)c(=S)c1C#N (configuration not stated)	23.2 µM	12.4 µM	18 µM	–	23 µM
NCc1ccc(-c2ccc(CN)s2)s1	> 100 µM	> 100 µM	> 100 µM	> 100 µM	> 100 µM
Cc1ccc2c(c1)C(=O)C1(C2)Cc2c(C)cccc2C1=O (configuration not stated)	> 100 µM	> 100 µM	> 100 µM	> 100 µM	> 100 µM
COc1cc2c(cc1C)NC(=O)/C2=C/c1cccnc1	30.5 µM	> 53.8 µM	33.3 µM	25.3 µM	34.3 µM
Nc1cc(Cl)cc2cc(Cl)cnc12	> 100 µM	> 100 µM	> 100 µM	> 100 µM	> 100 µM
COC(=O)/C(C)=N/NC(=S)SC	> 100 µM	> 100 µM	> 100 µM	> 100 µM	> 100 µM
Cc1cc(S(=O)(=O)Nc2nc(N)nc(N3N=CCC3C)n2)c(SCC(=O)O)cc1Cl (configuration not stated)	> 10 µM	> 10 µM	> 10 µM	> 10 µM	> 10 µM
O=S(=O)(/N=S(/Nc1ccccc1)C(Cl)Cl)c1ccccc1 (configuration not stated)	> 100 µM	> 100 µM	> 100 µM	–	> 100 µM
C1=C(CC2=C[P+](c3ccccc3)(c3ccccc3)C=C(c3ccccc3)O2)OC(c2ccccc2)=C[P+]1(c1ccccc1)c1ccccc1	1.88 µM	1.67 µM	1.16 µM	0.964 µM	1.41 µM
CC(NC(=O)OCc1ccccc1)NC(=O)OC(C)(C)C (configuration not stated)	> 100 µM	> 100 µM	> 100 µM	> 100 µM	> 100 µM
C[N+]12CCCCC1C(COc1cccc3cccnc13)CCC2 (configuration not stated)	> 100 µM	> 100 µM	> 100 µM	> 100 µM	> 100 µM
CC12Nc3c(Cl)cc(Cl)cc3N1C(=O)c1ccccc12 (configuration not stated)	> 100 µM	> 100 µM	> 100 µM	> 100 µM	> 100 µM
CC(=O)c1c(-c2ccc(Cl)cc2)c(-c2ccc(Cl)cc2)n[nH]c1=O	–	73.9 µM	79.8 µM	> 100 µM	> 100 µM
CN(C)CCn1c(=O)c2ccc(NCCNCCO)c3c(=O)c4ccccc4n(c1=O)c23	0.851 µM	0.78 µM	5.66 µM	0.813 µM	16.2 µM
C/C(Cl)=N/OC(=O)Nc1ccc(F)c([N+](=O)[O-])c1	33.9 µM	18.5 µM	35.8 µM	29.2 µM	45 µM
O=c1[nH]c2cccc([N+](=O)[O-])c2c(=O)n1-c1ccc(Cl)cc1	61 µM	59.5 µM	23.5 µM	24 µM	28 µM

SMILES	TGI (HOP-62 NSCLC)	TGI (LOX IMVI melanoma)	TGI (OVCAR-3 ovarian)	TGI (SK-MEL-5 melanoma)	TGI (SK-OV-3 ovarian)
CN1CCC23c4c5ccc(Oc6nnnn6-c6ccccc6)c4OC2c2[nH]c4ccccc4c2CC3(O)C1C5 (configuration not stated)	12.8 µM	3.75 µM	22.5 µM	–	25.4 µM
O=[N+]([O-])/C(C(Cl)=C(Cl)Cl)=C1\Nc2ccc([N+](=O)[O-])cc2N1	> 100 µM	–	> 100 µM	> 100 µM	> 100 µM
O=S(=O)(O)CCSSCCS(=O)(=O)O	> 1000 µM	> 1000 µM	> 1000 µM	–	> 1000 µM
COc1ccc(N2C(=O)C3c4[nH]c5ccc(C)cc5c4C4CCC(C(C)(C)C)CC4C3C2=O)cc1 (configuration not stated)	33.4 µM	–	32 µM	> 100 µM	29.5 µM
O=C1c2ccccc2C(=O)C2NC(CCCCCSSCCCCCC3=NC4C(=O)c5ccccc5C(=O)C4N3)=NC12 (configuration not stated)	> 100 µM	> 100 µM	> 100 µM	> 100 µM	> 100 µM
Cc1ccc(-c2c(C#N)c(-c3ccccc3)n(NS(=O)(=O)c3ccc(C)cc3)c(=O)c2C#N)cc1	> 100 µM	> 100 µM	–	62.5 µM	> 100 µM
CC1=NN(c2ccccc2)C2(C1)C(Cl)C(=O)N2c1nc2ccccc2s1 (configuration not stated)	82.6 µM	26.3 µM	47.9 µM	73.3 µM	> 100 µM
Cc1nc(N)c(N2CCN(S(N)(=O)=O)CC2)c(=O)[nH]1	> 100 µM	> 100 µM	> 100 µM	–	–
N=c1c2ccccc2nc2oc3cc([N+](=O)[O-])ccc3n12	45.4 µM	> 100 µM	70.8 µM	> 100 µM	37.1 µM
C1C2CC3CC1CC(c1nn4c(C56CC7CC(CC(C7)C5)C6)nnc4s1)(C2)C3	> 100 µM	> 100 µM	> 100 µM	> 100 µM	> 100 µM
CCN(CCCl)c1cc(CN(C)C)cc(NC(=O)c2ccc(C(=O)Nc3cc(CN(C)C)cc(N(CC)CCCl)c3)cc2)c1	0.966 µM	0.712 µM	2.66 µM	0.328 µM	5.82 µM
O=c1[nH]c(=O)n(C/C=C/CO)nc1Br	> 100 µM	> 100 µM	> 100 µM	> 100 µM	–
CCCCCCCCCCCCCCCCP(=O)(O)OCC(N)C(=O)O (configuration not stated)	47.9 µM	40.1 µM	79.3 µM	> 100 µM	> 100 µM
Cn1c(-c2cccs2)cc(-c2cccs2)c1-c1cccs1	> 100 µM	> 100 µM	> 100 µM	> 100 µM	> 100 µM
[O-][n+]1nc(N2CCOCC2)nc2ccccc21	> 100 µM	> 100 µM	–	–	> 100 µM
CCCN(CCc1ccc(-c2ccccc2)cc1)CCc1ccc2n[nH]nc2c1	26.3 µM	28.6 µM	25.8 µM	15.8 µM	28.5 µM
